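A five-concentration, 48-hour dose response in 96-well plates underlies each endpoint, interpolated linearly between surrounding concentrations. At the GI50, growth is halved.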 Calls of active or inactive are those of the source. Rule as the data show it: active = GI50 up to about 1.1 µM and inactive = higher.
Legend:
Assay in all cases: DTP human tumour cell line panel, 48 h
SK-OV-3 = tested on: SK-OV-3
NCI-H460 = tested on: NCI-H460
CAKI-1 = tested on: CAKI-1
Hs-578T = tested on: Hs-578T
MDA-MB-231 = tested on: MDA-MB-231
MOLT-4 = tested on: MOLT-4
NCI-H226 = tested on: NCI-H226
786-0 = tested on: 786-0
HOP-92 = tested on: HOP-92
U-251 = tested on: U-251
HCC 2998 = tested on: HCC 2998
MDA-MB-435 = tested on: MDA-MB-435
NCI/ADR-RES = tested on: NCI/ADR-RES
MCF7 = tested on: MCF7
SR = tested on: SR
SK-MEL-5 = tested on: SK-MEL-5
OVCAR-8 = tested on: OVCAR-8
NCI-H522 = tested on: NCI-H522
CCRF-CEM = tested on: CCRF-CEM
LOX IMVI = tested on: LOX IMVI
ACHN = tested on: ACHN
IGROV-1 = tested on: IGROV-1
OVCAR-5 = tested on: OVCAR-5
HCT-116 = tested on: HCT-116
SW-620 = tested on: SW-620
PC-3 = tested on: PC-3
T47D = tested on: T47D
SK-MEL-2 = tested on: SK-MEL-2
SN12C = tested on: SN12C
HL-60 = tested on: HL-60
OVCAR-3 = tested on: OVCAR-3
UACC-257 = tested on: UACC-257
MDA-N = tested on: MDA-N
SK-MEL-28 = tested on: SK-MEL-28
HOP-62 = tested on: HOP-62
SF-539 = tested on: SF-539
BT-549 = tested on: BT-549
HT-29 = tested on: HT-29
EKVX = tested on: EKVX
HCT-15 = tested on: HCT-15
SF-295 = tested on: SF-295
SNB-75 = tested on: SNB-75
TK-10 = tested on: TK-10
DU-145 = tested on: DU-145
A498 = tested on: A498
UACC-62 = tested on: UACC-62
RPMI-8226 = tested on: RPMI-8226
OVCAR-4 = tested on: OVCAR-4
SNB-19 = tested on: SNB-19
K562 = tested on: K562
A549 = tested on: A549
KM12 = tested on: KM12
COLO 205 = tested on: COLO 205
RXF 393 = tested on: RXF 393
UO-31 = tested on: UO-31
SF-268 = tested on: SF-268
NCI-H23 = tested on: NCI-H23
M14 = tested on: M14
Malme-3M = tested on: Malme-3M

For O=[N+]([O-])c1ccc2[nH]ncc2c1Cl, the GI50 (SK-OV-3) was 53.5 µM (inactive), the GI50 (NCI-H460) was 33.1 µM (inactive) and the GI50 (CAKI-1) was > 10 µM (inactive). The GI50 (Hs-578T) was 21.4 µM (inactive), the GI50 (MDA-MB-231) was 0.0108 µM (active) and the GI50 (MOLT-4) was 22.8 µM (inactive). For the same compound, the GI50 (NCI-H226) was 8.69 µM (inactive), the GI50 (786-0) was 36.3 µM (inactive) and the GI50 (HOP-92) was 63 µM (inactive). For the same compound, the GI50 (U-251) was 42.5 µM (inactive), the GI50 (HCC 2998) was 29.6 µM (inactive) and the GI50 (MDA-MB-435) was 36.1 µM (inactive). The GI50 (NCI/ADR-RES) was 26.5 µM (inactive), the GI50 (MCF7) was 41.7 µM (inactive) and the GI50 (SR) was 1.03 µM (active). The GI50 (SK-MEL-5) was 13.3 µM (inactive), the GI50 (OVCAR-8) was 27.5 µM (inactive) and the GI50 (NCI-H522) was 3.74 µM (inactive). For the same compound, the GI50 (CCRF-CEM) was 46 µM (inactive), the GI50 (LOX IMVI) was 17.5 µM (inactive) and the GI50 (ACHN) was 24.7 µM (inactive). The GI50 (IGROV-1) was 18 µM (inactive), the GI50 (OVCAR-5) was 23.6 µM (inactive) and the GI50 (HCT-116) was 24 µM (inactive). For the same compound, the GI50 (SW-620) was 31.6 µM (inactive), the GI50 (PC-3) was 29.6 µM (inactive) and the GI50 (T47D) was 17.5 µM (inactive). The GI50 (SK-MEL-2) was 20.2 µM (inactive), the GI50 (SN12C) was 31.7 µM (inactive) and the GI50 (HL-60) was 29.8 µM (inactive). For the same compound, the GI50 (OVCAR-3) was 33.8 µM (inactive), the GI50 (UACC-257) was 31.2 µM (inactive) and the GI50 (MDA-N) was 16.1 µM (inactive). The GI50 (SK-MEL-28) was 33.5 µM (inactive), the GI50 (HOP-62) was 50.6 µM (inactive) and the GI50 (SF-539) was 36.7 µM (inactive). The GI50 (BT-549) was 38.5 µM (inactive), the GI50 (HT-29) was 17.9 µM (inactive) and the GI50 (EKVX) was 20.6 µM (inactive). For the same compound, the GI50 (HCT-15) was 23.3 µM, the GI50 (SF-295) was 86.3 µM (inactive) and the GI50 (SNB-75) was 35.9 µM (inactive). For the same compound, the GI50 (TK-10) was 83.6 µM (inactive), the GI50 (DU-145) was 16.6 µM (inactive) and the GI50 (A498) was 74.6 µM (inactive). The GI50 (UACC-62) was 34.2 µM (inactive), the GI50 (RPMI-8226) was 20.1 µM (inactive) and the GI50 (OVCAR-4) was 26.8 µM (inactive). For the same compound, the GI50 (SNB-19) was 36.8 µM (inactive), the GI50 (K562) was 18.3 µM (inactive) and the GI50 (A549) was 45 µM (inactive). For the same compound, the GI50 (KM12) was 25.3 µM (inactive), the GI50 (COLO 205) was 13.4 µM (inactive) and the GI50 (RXF 393) was 42.8 µM (inactive).

For COC(=O)CCC(=O)NC1=C(NCc2ccccc2)C(=O)c2ccccc2C1=O, the GI50 (SK-OV-3) was 57.3 µM (inactive), the GI50 (NCI-H460) was 18 µM (inactive) and the GI50 (CAKI-1) was 26.2 µM (inactive). For the same compound, the GI50 (Hs-578T) was > 100 µM (inactive), the GI50 (MDA-MB-231) was 23.4 µM (inactive) and the GI50 (MOLT-4) was 34 µM (inactive). The GI50 (NCI-H226) was 85.1 µM (inactive), the GI50 (786-0) was 38.5 µM (inactive) and the GI50 (HOP-92) was 15.7 µM (inactive). The GI50 (UO-31) was 32.6 µM (inactive), the GI50 (U-251) was 28.9 µM (inactive) and the GI50 (HCC 2998) was 37.2 µM (inactive). For the same compound, the GI50 (MDA-MB-435) was 18.9 µM (inactive), the GI50 (NCI/ADR-RES) was 29.3 µM (inactive) and the GI50 (MCF7) was 17.3 µM (inactive). The GI50 (SR) was 27.9 µM (inactive), the GI50 (SK-MEL-5) was 12.1 µM (inactive) and the GI50 (OVCAR-8) was 27.7 µM (inactive). For the same compound, the GI50 (NCI-H522) was 19.1 µM (inactive), the GI50 (CCRF-CEM) was 35.8 µM (inactive) and the GI50 (LOX IMVI) was 21.8 µM (inactive). The GI50 (ACHN) was 27.4 µM (inactive), the GI50 (IGROV-1) was 17.7 µM (inactive) and the GI50 (OVCAR-5) was 29.5 µM (inactive). For the same compound, the GI50 (HCT-116) was 30.3 µM (inactive), the GI50 (SW-620) was 19.9 µM (inactive) and the GI50 (PC-3) was 25.2 µM (inactive). The GI50 (T47D) was 34 µM (inactive), the GI50 (SK-MEL-2) was 18.8 µM (inactive) and the GI50 (SF-268) was 39.8 µM (inactive). The GI50 (SN12C) was 25.5 µM (inactive), the GI50 (HL-60) was 21.8 µM (inactive) and the GI50 (OVCAR-3) was 3.95 µM (inactive). For the same compound, the GI50 (UACC-257) was 16.6 µM (inactive), the GI50 (MDA-N) was 16 µM (inactive) and the GI50 (SK-MEL-28) was 88.3 µM (inactive). The GI50 (NCI-H23) was 21.3 µM (inactive), the GI50 (SF-539) was 20.1 µM (inactive) and the GI50 (BT-549) was 46.7 µM (inactive). For the same compound, the GI50 (HT-29) was 25.7 µM (inactive), the GI50 (EKVX) was 32.9 µM (inactive) and the GI50 (HCT-15) was 17 µM. The GI50 (SF-295) was 26.7 µM (inactive), the GI50 (SNB-75) was 78.2 µM (inactive) and the GI50 (TK-10) was 45.3 µM (inactive). The GI50 (DU-145) was 45.3 µM (inactive), the GI50 (A498) was 67.9 µM (inactive) and the GI50 (UACC-62) was 17.3 µM (inactive). For the same compound, the GI50 (RPMI-8226) was 34 µM (inactive), the GI50 (OVCAR-4) was 18.5 µM (inactive) and the GI50 (SNB-19) was 21.7 µM (inactive). For the same compound, the GI50 (K562) was 33.9 µM (inactive), the GI50 (A549) was 26.2 µM (inactive) and the GI50 (KM12) was 24.8 µM (inactive). The GI50 (M14) was 18.7 µM (inactive), the GI50 (COLO 205) was 20.4 µM (inactive) and the GI50 (RXF 393) was 34.7 µM (inactive).

With COc1ccc(NC(=O)CC(=O)N2N=C(C)C(/N=N\c3ccc(S(=O)(=O)c4ccc(/N=N/C5C(=O)N(C(=O)CC(=O)Nc6ccc(OC)cc6)N=C5C)cc4)cc3)C2=O)cc1 (centres undefined) the GI50 (SK-OV-3) was > 100 µM (inactive), the GI50 (NCI-H460) was > 100 µM (inactive) and the GI50 (CAKI-1) was > 100 µM (inactive). For the same compound, the GI50 (Hs-578T) was 25 µM (inactive), the GI50 (MDA-MB-231) was > 100 µM (inactive) and the GI50 (MOLT-4) was > 100 µM (inactive). For the same compound, the GI50 (NCI-H226) was > 100 µM (inactive), the GI50 (786-0) was > 100 µM (inactive) and the GI50 (HOP-92) was 63.5 µM (inactive). The GI50 (UO-31) was > 100 µM (inactive), the GI50 (U-251) was > 100 µM (inactive) and the GI50 (HCC 2998) was > 100 µM (inactive). The GI50 (MDA-MB-435) was > 100 µM (inactive), the GI50 (NCI/ADR-RES) was > 100 µM (inactive) and the GI50 (MCF7) was > 100 µM (inactive). The GI50 (SR) was > 100 µM (inactive), the GI50 (SK-MEL-5) was 63 µM (inactive) and the GI50 (OVCAR-8) was > 100 µM (inactive). The GI50 (NCI-H522) was > 100 µM (inactive), the GI50 (CCRF-CEM) was > 100 µM (inactive) and the GI50 (LOX IMVI) was > 100 µM (inactive). The GI50 (ACHN) was > 100 µM (inactive), the GI50 (IGROV-1) was 55.1 µM (inactive) and the GI50 (HCT-116) was > 100 µM (inactive). The GI50 (SW-620) was > 100 µM (inactive), the GI50 (PC-3) was > 100 µM (inactive) and the GI50 (T47D) was > 100 µM (inactive). For the same compound, the GI50 (SK-MEL-2) was > 100 µM (inactive), the GI50 (SF-268) was 35.9 µM (inactive) and the GI50 (SN12C) was > 100 µM (inactive). For the same compound, the GI50 (Malme-3M) was > 100 µM (inactive), the GI50 (HL-60) was > 100 µM (inactive) and the GI50 (OVCAR-3) was > 100 µM (inactive). The GI50 (UACC-257) was > 100 µM (inactive), the GI50 (MDA-N) was > 100 µM (inactive) and the GI50 (SK-MEL-28) was > 100 µM (inactive). The GI50 (NCI-H23) was > 100 µM (inactive), the GI50 (HOP-62) was 45.6 µM (inactive) and the GI50 (SF-539) was > 100 µM (inactive). For the same compound, the GI50 (BT-549) was > 100 µM (inactive), the GI50 (HT-29) was > 100 µM (inactive) and the GI50 (EKVX) was > 100 µM (inactive). For the same compound, the GI50 (HCT-15) was over 100 µM, the GI50 (SF-295) was > 100 µM (inactive) and the GI50 (SNB-75) was 24.9 µM (inactive). For the same compound, the GI50 (TK-10) was > 100 µM (inactive), the GI50 (DU-145) was > 100 µM (inactive) and the GI50 (A498) was > 100 µM (inactive). For the same compound, the GI50 (UACC-62) was > 100 µM (inactive), the GI50 (RPMI-8226) was > 100 µM (inactive) and the GI50 (OVCAR-4) was > 100 µM (inactive). For the same compound, the GI50 (SNB-19) was > 100 µM (inactive), the GI50 (K562) was 50 µM (inactive) and the GI50 (A549) was > 100 µM (inactive). The GI50 (KM12) was > 100 µM (inactive), the GI50 (M14) was > 100 µM (inactive) and the GI50 (COLO 205) was > 100 µM (inactive). For the same compound, the GI50 (RXF 393) was 31.3 µM (inactive).
